In one assay the test system is α-adrenergic. Description: α-Adrenergic blocking action: antagonism of the hypertensive response to phenylephrine in anesthetized rats. In kind it is in vivo. The following applies: Rattus norvegicus, iv, read-out: α-blocking activity (rat) ED50 (mg/kg) i.v. How it is done: (§1) The pharmacological effects of the compounds of this invention were determined by the following experiments. The effects of the typical compounds of this invention were compared with those of 5-{1-hydroxy-2-[2-(2-methoxyphenoxy)ethylamino]ethyl}-2-methylbenzenesulfonamide (referred to as "Compound A") which is one of the typical compounds disclosed in British Pat. No. 2,006,772 and phentolamine.
A. α-Adrenergic blocking action:
The blood pressure was measured in the rats anesthetized with urethane and treated with pentolinium. The effects of the test samples (intravenous injection) to antagonize the hypertensive response to phenylephrine (10 μg/Kg i.v.) were measured and the results were shown in Table I.

Assay [1] is described as follows: Antihypertensive effects in spontaneously hypertensive rats (oral administration, tail cuff method). In kind it is in vivo. As to conditions: 30 mg/kg P.O., spontaneously hypertensive rats with systolic blood pressure higher than 150 mmHg. The method, then:
as §1
B. Antihypertensive effects in spontaneously hypertensive rats:
Oral administration:--The systolic blood pressure was measured indirectly by the tail cuff method using a programmed electrosphygmanometer (Nacro-Bio-Systems Inc., PE-300) on spontaneously hypertensive rats having the systolic blood pressure of higher than 150 mmHg, the results being shown in Table II.

Where [2] appears, read: rats anesthetized with urethane and treated with pentolinium, i.v. test sample, phenylephrine 10 μg/Kg i.v.

Read-outs that look alike come from different tables or passages of the source.

With `COc1ccccc1OCCNCC(O)c1ccc(C)c(S(N)(=O)=O)c1` (stereo not shown) [Compound A, 5-{1-hydroxy-2-[2-(2-methoxyphenoxy)ethylamino]ethyl}-2-methylbenzenesulfonamide, reference compound], the ED50 in the assay on α-adrenergic (setting [2]) was 0.032 mg/kg. In addition, the “change in systolic blood pressure (mm Hg) at stated dose P.O.” value (“change … at stated dose P.O.” below) in assay [1] is on record as -30 mm Hg.

As for `COc1ccccc1OCCNCC(O)c1ccc(C)c([S+](C)[O-])c1.O=C(O)C(=O)O` (stereo not drawn) [Example 5, α-{[2-(2-Methoxyphenoxy)ethylamino]methyl}-4-methyl-3-methylsulfinylbenzenemethanol oxalate], in the assay on α-adrenergic (setting [2]), the ED50 was determined as 0.045 mg/kg. For the same compound, the “change … at stated dose P.O.” value in assay [1] is listed as -60 mm Hg.

As to `CCOc1ccccc1OCCNC(C)Cc1ccc(OC)c(SC)c1.Cl` (stereo not shown) [Example 8, 4-{2-[2-(2-Ethoxyphenoxy)ethylamino]-2-methylethyl}-2-(methylthio)anisole hydrochloride], the ED50 in the assay with α-adrenergic came to 0.0019 mg/kg. Moreover, the “change … at stated dose P.O.” value in assay [1] is recorded as -48 mm Hg.

With `CCOc1ccccc1OCCNC(C)Cc1ccc(OC)c(S(C)(=O)=O)c1.Cl` (stereo not shown) [Example 12, 4-{2-[2-(2-Ethoxyphenoxy)ethylamino]-2-methylethyl}-2-(methylsulfonyl)anisole hydrochloride], the ED50 with α-adrenergic was 0.00014 mg/kg. For the same compound, the “change … at stated dose P.O.” value in assay [1] is reported as -58 mm Hg.

Take `Cc1ccc(N(CC2=NCCN2)c2cccc(O)c2)cc1` [phentolamine, reference compound]: in the assay with α-adrenergic (setting [2]), the ED50 stood at 0.061 mg/kg. In assay [1], the “change … at stated dose P.O.” value is -53 mm Hg.

The values are drawn from US4880841A, “Process of producing phenethylamine derivatives” (Yamanouchi Pharmaceutical Co., Ltd., priority 1980, dated 1989).
